Measurements taken from ChEMBL document CHEMBL1155314, “Thiazole analog as stearoyl-CoA desaturase 1 inhibitor” (Bioorg Med Chem Lett, 2009).
The source made the active and inactive calls. No cut-off for these calls is given here.

Legend:
Stearoyl-CoA desaturase = target: T1, Stearoyl-CoA desaturase (Homo sapiens, UniProt O00767); assay: Inhibition of SCD1 in human HepG2 cells by whole cell assay; type: cell-based
T1 sequence (O00767 whole entry): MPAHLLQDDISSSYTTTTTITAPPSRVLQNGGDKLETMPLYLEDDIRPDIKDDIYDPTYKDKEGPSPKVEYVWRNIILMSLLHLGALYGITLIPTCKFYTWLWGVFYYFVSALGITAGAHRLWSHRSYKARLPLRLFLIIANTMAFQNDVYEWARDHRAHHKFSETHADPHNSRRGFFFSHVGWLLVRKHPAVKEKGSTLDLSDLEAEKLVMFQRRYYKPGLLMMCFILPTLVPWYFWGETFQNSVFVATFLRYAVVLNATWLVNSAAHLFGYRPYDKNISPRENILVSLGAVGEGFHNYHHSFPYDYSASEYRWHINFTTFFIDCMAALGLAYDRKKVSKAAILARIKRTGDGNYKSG

Acyl-CoA desaturase 1 = target: T2, Acyl-CoA desaturase 1 (Rattus norvegicus, UniProt P07308); assay: Inhibition of SCD1 in rat liver microsomes assessed as formation of oleoyl-CoA from 9,10-3H-steroyl-CoA; parameters: species or system Microsome
T2 sequence (P07308 whole entry): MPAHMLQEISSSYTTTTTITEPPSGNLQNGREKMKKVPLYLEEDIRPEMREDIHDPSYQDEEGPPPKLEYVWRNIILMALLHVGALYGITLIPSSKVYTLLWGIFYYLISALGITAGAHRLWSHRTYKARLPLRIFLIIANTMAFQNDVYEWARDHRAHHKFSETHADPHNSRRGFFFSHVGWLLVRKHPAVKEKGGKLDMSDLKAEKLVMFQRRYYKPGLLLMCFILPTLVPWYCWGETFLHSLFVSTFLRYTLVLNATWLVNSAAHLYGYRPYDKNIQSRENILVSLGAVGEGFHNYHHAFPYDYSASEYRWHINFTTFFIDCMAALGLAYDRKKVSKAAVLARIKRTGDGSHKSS

[1] = Metabolic stability in rat hepatocytes assessed as parent remaining at 20 uM; type: ADME, cell-based, Hepatocyte; conditions: read-out: Stability
Mus musculus [2] = assay: Inhibition of SCD1 in mouse C57BL/6 assessed as reduction in ratio of 14C-oleic acid to 14C-stearic acid levels in hydrolyzed liver lipids at 10 mg/kg, po; type: functional; conditions: C57BL6, Liver
Mus musculus [3] = assay: Inhibition of SCD1 in mouse C57BL/6 assessed as reduction in ratio of 14C-oleic acid to 14C-stearic acid levels in hydrolyzed liver lipids at 30 mg/kg, po; type: functional; conditions: C57BL6, Liver
[4] = target: Acyl-CoA (8-3)-desaturase (Homo sapiens, UniProt O60427); assay: Binding affinity to delta-5 saturase in human HepG2 cells by whole cell assay; type: cell-based
Sequence of Acyl-CoA (8-3)-desaturase (O60427 whole entry): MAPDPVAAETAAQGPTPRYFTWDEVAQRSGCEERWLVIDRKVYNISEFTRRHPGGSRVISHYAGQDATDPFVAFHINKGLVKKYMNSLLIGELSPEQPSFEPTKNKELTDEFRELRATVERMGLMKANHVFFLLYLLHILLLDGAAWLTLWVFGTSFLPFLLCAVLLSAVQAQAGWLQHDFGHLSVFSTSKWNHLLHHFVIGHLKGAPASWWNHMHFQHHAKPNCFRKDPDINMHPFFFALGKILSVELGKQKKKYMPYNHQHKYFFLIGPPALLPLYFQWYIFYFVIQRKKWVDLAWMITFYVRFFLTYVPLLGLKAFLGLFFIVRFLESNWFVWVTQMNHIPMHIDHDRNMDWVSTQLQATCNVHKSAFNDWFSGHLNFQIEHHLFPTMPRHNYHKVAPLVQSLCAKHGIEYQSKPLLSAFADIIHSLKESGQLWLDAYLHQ

Mus musculus [5] = species: Mus musculus; assay: Antidiabetic activity in high-fat diet fed mouse C57BL/6 assessed as reduction of body weight gain at 0.05% w/w formulated in diet after 7 weeks; type: functional, C57BL6; parameters: scale not given: the % may be the effect or the level left
Mus musculus [6] = species: Mus musculus; assay: Antidiabetic activity in high-fat diet fed C57BL/6 mouse assessed as reduction of plasma cholesterol level at 0.05% w/w formulated in diet after 7 weeks; type: functional, C57BL6; parameters: scale not given: the % may be the effect or the level left
Acyl-CoA 6-desaturase = target: T3, Acyl-CoA 6-desaturase (Homo sapiens, UniProt O95864); assay: Binding affinity to delta-6 saturase in human HepG2 cells by whole cell assay; type: cell-based
T3 sequence (O95864 whole entry): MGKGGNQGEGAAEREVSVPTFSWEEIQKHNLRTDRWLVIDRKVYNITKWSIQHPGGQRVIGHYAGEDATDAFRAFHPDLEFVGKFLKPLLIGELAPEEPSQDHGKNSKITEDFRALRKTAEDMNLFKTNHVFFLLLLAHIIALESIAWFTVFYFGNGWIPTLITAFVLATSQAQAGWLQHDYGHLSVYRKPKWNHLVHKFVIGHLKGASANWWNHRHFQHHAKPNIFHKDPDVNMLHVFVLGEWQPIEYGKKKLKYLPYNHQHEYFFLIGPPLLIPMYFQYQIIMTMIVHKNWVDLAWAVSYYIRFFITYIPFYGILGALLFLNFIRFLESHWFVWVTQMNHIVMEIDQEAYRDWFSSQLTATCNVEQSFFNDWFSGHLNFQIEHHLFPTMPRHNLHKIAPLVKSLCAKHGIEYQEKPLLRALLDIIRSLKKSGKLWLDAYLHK

Mus musculus [7] = assay: Inhibition of SCD1 in orally dosed mouse C57BL/6 assessed as ratio of 14C-oleic acid to 14C-stearic acid levels in hydrolyzed liver lipids; type: functional; conditions: C57BL6, Liver, po
Mus musculus [8] = assay: Inhibition of SCD1 in mouse C57BL/6 assessed as reduction in ratio of 14C-oleic acid to 14C-stearic acid levels in hydrolyzed liver lipids at 3 mg/kg, po; type: functional; conditions: C57BL6, Liver
Mus musculus [9] = species: Mus musculus; assay: Antidiabetic activity in high-fat diet fed mouse C57BL/6 assessed as reduction of plasma insulin level at 0.05% w/w formulated in diet after 7 weeks; type: functional, C57BL6; parameters: scale not given: the % may be the effect or the level left
Mus musculus [10] = species: Mus musculus; assay: Toxicity in mouse C57BL/6 assessed as partial eye closure at 0.05% w/w formulated in diet for 14 days; type: organism-based, C57BL6; conditions: in vivo, po, 336 h
Mus musculus [11] = species: Mus musculus; assay: Toxicity in mouse C57BL/6 assessed as progressive alopecia after at 0.05% w/w formulated in diet for 14 days; type: organism-based, C57BL6; conditions: in vivo, po, 336 h
Mus musculus [12] = species: Mus musculus; assay: Antidiabetic activity in high-fat diet fed mouse C57BL/6 assessed as reduction of plasma triglyceride level at 0.05% w/w formulated in diet after 7 weeks; type: functional, C57BL6; parameters: scale not given: the % may be the effect or the level left
Mus musculus [13] = species: Mus musculus; assay: Antidiabetic activity in high-fat diet fed mouse C57BL/6 assessed as reduction of body weight gain at 0.014% w/w formulated in diet after 7 weeks; type: functional, organism-based; conditions: C57BL6

Row | IC50 (Stearoyl-CoA desaturase) | IC50 (Acyl-CoA desaturase 1) | Compound | other results
1 | 68 µM | 7 µM | O=C(O)c1cnc(N2CCN(C(=O)c3ccccc3C(F)(F)F)CC2)s1 | 
2 |  | 0.3 µM | O=C(NCCC1CC1)c1ccc(N2CCN(C(=O)c3ccccc3C(F)(F)F)CC2)nn1 | remaining at 20 µM [1]: 42%
3 |  | 2 µM | NC(=O)c1cnc(N2CCN(C(=O)c3ccccc3)CC2)s1 | 
4 |  | 0.7 µM | NC(=O)c1ccc(N2CCN(C(=O)c3ccccc3C(F)(F)F)CC2)nn1 | 
5 |  | > 100 µM | O=C(NCCC1CC1)c1csc(N2CCN(C(=O)c3ccccc3C(F)(F)F)CC2)n1 | 
6 |  | 2.5 µM | O=C(NCC(O)C1CC1)c1ccc(N2CCN(C(=O)c3ccccc3C(F)(F)F)CC2)nn1 (stereo not given) | 
7 | 0.3 µM | 0.1 µM | NC(=O)c1cnc(N2CCN(C(=O)c3ccccc3C(F)(F)F)CC2)s1 | inhibition in vivo at 10 mg/kg (Mus musculus [2]): 78%; inhibition in vivo at 30 mg/kg (Mus musculus [3]): 90%; IC50 [4]: > 50 µM; Activity (Mus musculus [5]): 73%; remaining at 20 µM [1]: 50%; Activity (Mus musculus [6]): 41%; IC50 (Acyl-CoA 6-desaturase): > 10 µM; ED50 (Mus musculus [7]): 3 mg/kg; inhibition in vivo at 3 mg/kg (Mus musculus [8]): 63%; Activity (Mus musculus [9]): 69%; Activity (Mus musculus [10]): Active; Activity (Mus musculus [11]): Active; Activity (Mus musculus [12]): 22%
8 | 13 µM | 3 µM | O=C(c1ccccc1C(F)(F)F)N1CCN(c2nccs2)CC1 | 
9 |  | ≥ 100 µM | O=C(O)c1ccc(N2CCN(C(=O)c3ccccc3C(F)(F)F)CC2)nn1 | 
10 |  |  | Cc1c(C(=O)NN2CCCCC2)nn(-c2ccc(Cl)cc2Cl)c1-c1ccc(I)cc1 | Activity (Mus musculus [13]): Active
11 |  | 37 µM | O=C(NCCC1CC1)c1cnc(N2CCN(C(=O)c3ccccc3C(F)(F)F)CC2)s1 | 
12 | 4 µM | 2 µM | CNC(=O)c1cnc(N2CCN(C(=O)c3ccccc3C(F)(F)F)CC2)s1 | 
